For assay [1], the target named is 1-phosphatidylinositol 4,5-bisphosphate phosphodiesterase beta-3 (Homo sapiens, UniProt Q01970). Briefly: Fluorescence-based biochemical high throughput dose response assay to identify inhibitors of phospholipase C isozymes (PLC-B3).
Assay [2] concerns the target 1-phosphatidylinositol 4,5-bisphosphate phosphodiesterase gamma-1 (Homo sapiens, UniProt P19174). The assay is described as follows: Counterscreen for inhibitors of phospholipase C isozymes (PLC-B3): Fluorescence-based biochemical high throughput dose response assay to identify inhibitors of phospholipase C isozymes (PLC-gamma1). A general note: The purpose of a counterscreen is to sort out artefacts and off-target activity.

Assay [3] in a line: cytotoxicity toward Colo320 cells – cell-based, CellTiter-Glo luminescence, IC50, dose response (AID 1117334). The following applies: COLO 320. It is filed as functional. A general note: Cellular ATP, detected with luciferase, serves as a proxy for viable cell number.
A short description of assay [4]: SNU-C1 cell viability reduction, dose response, CellTiter-Glo luminescence (AID 1117323). It is filed as functional, cell-based.
Assay [5] in a line: RKO cell viability reduction, dose response, CellTiter-Glo luminescence (AID 1117322). The class given is functional.
A short description of assay [6]: Concentration-dependent survival of SW480 colon cancer line, luminescence detection with CellTiter-Glo, half-maximal inhibitory concentration (AID 1117338). It is filed as functional.
A short description of assay [7]: cytotoxicity toward HT-29 cells – cell-based, CellTiter-Glo luminescence, IC50, dose response (AID 1117330). The class given is functional.
Assay [8] is described as follows: cytotoxicity toward HCT116 cells – cell-based, CellTiter-Glo luminescence, IC50, dose response (AID 1117332). The following applies: HCT-116. It is filed as functional.
A short description of assay [9]: CellTiter-Glo luminescent dose response of DLD-1 viability loss (AID 1117352). It is filed as functional.
Assay [10] is described as follows: HCT116 cell viability decrease, GSK3B pretreatment – CellTiter-Glo, IC50, dose response (AID 1117339). The following applies: HCT-116. It is filed as functional.
For another assay, the target named is Caspase-6 (Homo sapiens, UniProt P55212). The assay is described as follows: human caspase-6 inhibitors, dose response, biochemical, VEID-R110 fluorescence, cherry-pick (AID 720632).
The target of assay [11] is T1, Sentrin-specific protease 8 (Homo sapiens, UniProt Q96LD8).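 Also: kinetic enzyme assay of SENP8 cleaving a Nedd8 protein substrate, dose-response confirmation of screening hits.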
T1 sequence (Q96LD8 whole entry): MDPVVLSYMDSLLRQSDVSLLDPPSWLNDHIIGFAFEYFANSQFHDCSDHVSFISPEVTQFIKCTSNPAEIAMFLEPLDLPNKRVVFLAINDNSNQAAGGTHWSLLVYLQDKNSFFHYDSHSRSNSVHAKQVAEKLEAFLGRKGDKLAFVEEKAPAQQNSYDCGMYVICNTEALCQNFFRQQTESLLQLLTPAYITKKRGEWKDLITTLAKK
The class given is functional.

Assay [12] relates to Vero. Briefly: host cell cytotoxicity of antiviral hits, dose response, cytotoxicity control for West Nile virus antiviral project, secondary assay (AID 1650). It is filed as functional. The following applies: Chlorocebus sabaeus.
In assay [13] the test system is Vero. The assay is described as follows: cells. The class given is functional. The following applies: Chlorocebus sabaeus.
Assay [14] concerns Vero. Briefly: cells. The class given is functional, cell-based. The following applies: Chlorocebus sabaeus.
A further assay deals with T2, Cytochrome P450 1A2 (Homo sapiens, UniProt P05177).
T2 sequence (P05177 whole entry): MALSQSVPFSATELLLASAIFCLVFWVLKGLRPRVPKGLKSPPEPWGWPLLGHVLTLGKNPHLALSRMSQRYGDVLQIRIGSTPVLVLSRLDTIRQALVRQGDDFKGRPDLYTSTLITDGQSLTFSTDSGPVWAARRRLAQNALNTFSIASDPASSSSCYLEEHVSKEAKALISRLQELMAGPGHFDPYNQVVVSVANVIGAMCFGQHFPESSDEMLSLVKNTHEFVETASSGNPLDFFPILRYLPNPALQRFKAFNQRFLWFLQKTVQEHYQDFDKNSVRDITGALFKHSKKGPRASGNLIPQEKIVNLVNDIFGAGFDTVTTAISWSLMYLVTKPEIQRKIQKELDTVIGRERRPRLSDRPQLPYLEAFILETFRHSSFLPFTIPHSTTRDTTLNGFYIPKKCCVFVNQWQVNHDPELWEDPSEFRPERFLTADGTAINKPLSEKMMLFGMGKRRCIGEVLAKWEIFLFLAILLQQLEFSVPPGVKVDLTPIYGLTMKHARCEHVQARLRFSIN

For assay [15], the target named is Mitogen-activated protein kinase 10 (Homo sapiens, UniProt P53779). The assay is described as follows: Dose response biochemical screening assay for inhibitors of c-Jun N-Terminal Kinase 3 (JNK3). [Related pubchem assays: 746 ].
The next assay concerns the target Cytochrome P450 2C19 (Homo sapiens, UniProt P33261). Briefly: Cytochrome panel assay with activity outcomes. Panel member name: p450-cyp2c19 Compounds with AC50 equal or less than 10 uM are considered active. The class given is functional. The following applies: read-out: AC50.

Active and inactive are the calls of the source.

Caspase-6, sequence (P55212 24-179 limits assumed): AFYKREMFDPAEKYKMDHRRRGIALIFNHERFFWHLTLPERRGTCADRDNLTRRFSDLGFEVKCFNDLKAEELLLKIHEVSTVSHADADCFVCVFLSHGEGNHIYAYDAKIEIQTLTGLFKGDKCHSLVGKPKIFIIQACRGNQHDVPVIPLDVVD
Caspase-6, sequence (P55212 194-293 limits assumed): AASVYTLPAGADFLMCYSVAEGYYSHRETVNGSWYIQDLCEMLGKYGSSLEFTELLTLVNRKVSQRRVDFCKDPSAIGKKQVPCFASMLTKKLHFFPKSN
1-phosphatidylinositol 4,5-bisphosphate phosphodiesterase beta-3, sequence (Q01970 whole entry): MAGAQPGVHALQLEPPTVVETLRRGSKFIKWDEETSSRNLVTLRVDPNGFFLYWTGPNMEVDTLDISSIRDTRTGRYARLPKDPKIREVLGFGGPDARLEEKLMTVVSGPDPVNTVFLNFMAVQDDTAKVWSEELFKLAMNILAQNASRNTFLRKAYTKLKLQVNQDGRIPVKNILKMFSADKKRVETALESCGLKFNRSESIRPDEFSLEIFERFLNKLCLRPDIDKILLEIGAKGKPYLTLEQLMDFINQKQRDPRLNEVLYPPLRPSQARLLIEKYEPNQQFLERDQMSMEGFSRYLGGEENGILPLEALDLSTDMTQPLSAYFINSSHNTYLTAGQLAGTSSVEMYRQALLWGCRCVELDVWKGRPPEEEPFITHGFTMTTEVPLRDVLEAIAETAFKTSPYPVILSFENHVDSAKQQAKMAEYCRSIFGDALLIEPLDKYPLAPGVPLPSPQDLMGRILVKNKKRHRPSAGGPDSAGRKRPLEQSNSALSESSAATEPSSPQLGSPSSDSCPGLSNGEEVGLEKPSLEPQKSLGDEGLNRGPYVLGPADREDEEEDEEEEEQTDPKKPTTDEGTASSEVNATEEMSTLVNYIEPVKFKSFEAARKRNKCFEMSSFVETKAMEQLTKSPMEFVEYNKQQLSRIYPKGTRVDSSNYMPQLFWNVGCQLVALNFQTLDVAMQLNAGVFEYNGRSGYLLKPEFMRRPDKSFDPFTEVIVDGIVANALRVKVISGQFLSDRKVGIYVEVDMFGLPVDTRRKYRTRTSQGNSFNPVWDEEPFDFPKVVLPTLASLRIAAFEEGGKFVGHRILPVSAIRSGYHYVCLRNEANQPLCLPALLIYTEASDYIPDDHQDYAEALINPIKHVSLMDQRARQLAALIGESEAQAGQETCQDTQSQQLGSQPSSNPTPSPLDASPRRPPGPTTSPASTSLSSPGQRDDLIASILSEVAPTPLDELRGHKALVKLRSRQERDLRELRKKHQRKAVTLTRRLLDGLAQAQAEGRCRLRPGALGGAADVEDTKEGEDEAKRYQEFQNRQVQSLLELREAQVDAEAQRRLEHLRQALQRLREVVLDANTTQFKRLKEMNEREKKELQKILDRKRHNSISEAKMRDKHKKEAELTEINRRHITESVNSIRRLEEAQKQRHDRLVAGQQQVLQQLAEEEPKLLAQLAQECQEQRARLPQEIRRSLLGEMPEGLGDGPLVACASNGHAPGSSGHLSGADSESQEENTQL
Cytochrome P450 2C19, sequence (P33261 whole entry): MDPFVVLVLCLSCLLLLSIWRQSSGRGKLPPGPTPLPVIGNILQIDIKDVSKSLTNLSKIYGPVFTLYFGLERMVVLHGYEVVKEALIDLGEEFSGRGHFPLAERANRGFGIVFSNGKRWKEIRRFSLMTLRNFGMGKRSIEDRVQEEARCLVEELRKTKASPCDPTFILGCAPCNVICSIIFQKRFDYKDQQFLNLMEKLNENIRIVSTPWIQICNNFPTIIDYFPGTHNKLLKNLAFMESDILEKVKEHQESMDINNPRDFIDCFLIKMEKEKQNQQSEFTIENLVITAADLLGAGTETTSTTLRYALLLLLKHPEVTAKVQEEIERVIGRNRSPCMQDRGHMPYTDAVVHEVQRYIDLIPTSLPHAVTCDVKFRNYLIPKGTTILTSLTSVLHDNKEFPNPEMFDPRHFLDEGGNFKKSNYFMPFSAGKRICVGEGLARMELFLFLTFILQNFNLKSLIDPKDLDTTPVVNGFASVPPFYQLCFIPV
Mitogen-activated protein kinase 10, sequence (P53779 whole entry): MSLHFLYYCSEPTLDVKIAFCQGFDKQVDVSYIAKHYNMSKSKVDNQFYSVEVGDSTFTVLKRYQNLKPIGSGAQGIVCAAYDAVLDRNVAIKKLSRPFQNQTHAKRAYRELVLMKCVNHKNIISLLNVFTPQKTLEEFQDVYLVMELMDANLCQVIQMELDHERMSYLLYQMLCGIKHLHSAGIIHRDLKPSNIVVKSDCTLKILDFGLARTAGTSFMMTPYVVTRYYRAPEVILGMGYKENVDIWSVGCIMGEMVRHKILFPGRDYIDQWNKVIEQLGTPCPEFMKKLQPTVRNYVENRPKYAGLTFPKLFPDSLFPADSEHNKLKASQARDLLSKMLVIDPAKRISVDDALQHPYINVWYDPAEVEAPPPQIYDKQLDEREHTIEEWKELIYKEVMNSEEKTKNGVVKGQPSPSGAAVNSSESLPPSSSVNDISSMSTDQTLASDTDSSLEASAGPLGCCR
1-phosphatidylinositol 4,5-bisphosphate phosphodiesterase gamma-1, sequence (P19174 whole entry): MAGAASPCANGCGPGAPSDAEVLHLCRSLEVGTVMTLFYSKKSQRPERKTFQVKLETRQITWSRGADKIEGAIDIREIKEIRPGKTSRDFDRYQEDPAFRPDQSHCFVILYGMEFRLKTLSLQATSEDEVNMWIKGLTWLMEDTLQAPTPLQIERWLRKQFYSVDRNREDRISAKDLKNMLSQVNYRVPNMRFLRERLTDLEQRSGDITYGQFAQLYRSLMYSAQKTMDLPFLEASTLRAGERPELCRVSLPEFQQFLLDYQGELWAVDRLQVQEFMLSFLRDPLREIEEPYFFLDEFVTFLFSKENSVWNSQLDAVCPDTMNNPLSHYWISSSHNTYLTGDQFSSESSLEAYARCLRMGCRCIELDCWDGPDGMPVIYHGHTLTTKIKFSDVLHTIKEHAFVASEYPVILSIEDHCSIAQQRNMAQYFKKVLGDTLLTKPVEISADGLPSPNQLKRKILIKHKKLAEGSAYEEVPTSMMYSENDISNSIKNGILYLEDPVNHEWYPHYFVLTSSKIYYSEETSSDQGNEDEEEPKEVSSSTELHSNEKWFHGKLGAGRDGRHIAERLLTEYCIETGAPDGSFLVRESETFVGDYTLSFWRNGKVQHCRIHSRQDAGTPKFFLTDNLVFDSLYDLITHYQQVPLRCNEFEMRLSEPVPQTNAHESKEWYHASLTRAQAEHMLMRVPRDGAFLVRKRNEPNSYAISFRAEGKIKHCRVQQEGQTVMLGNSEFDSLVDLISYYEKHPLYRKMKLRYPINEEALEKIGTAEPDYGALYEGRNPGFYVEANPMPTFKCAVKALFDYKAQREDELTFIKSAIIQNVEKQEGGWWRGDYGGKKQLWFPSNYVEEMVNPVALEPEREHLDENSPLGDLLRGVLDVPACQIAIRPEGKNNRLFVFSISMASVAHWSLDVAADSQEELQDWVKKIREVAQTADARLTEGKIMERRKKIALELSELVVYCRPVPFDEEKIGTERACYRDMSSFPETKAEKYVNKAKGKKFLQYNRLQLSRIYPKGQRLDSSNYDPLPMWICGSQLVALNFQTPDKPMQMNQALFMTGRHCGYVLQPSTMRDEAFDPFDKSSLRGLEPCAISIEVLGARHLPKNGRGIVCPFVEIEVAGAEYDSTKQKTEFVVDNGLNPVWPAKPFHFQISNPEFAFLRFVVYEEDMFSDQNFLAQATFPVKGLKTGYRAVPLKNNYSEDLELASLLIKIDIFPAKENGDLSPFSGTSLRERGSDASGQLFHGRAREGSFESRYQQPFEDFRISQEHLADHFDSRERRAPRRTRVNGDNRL

As to `Cc1c(/N=C(\S)N/N=C/C=C/c2ccc([N+](=O)[O-])cc2)c(=O)n(-c2ccccc2)n1C`, the IC50 in assay [1] and in assay [2] was > 123 µM (inactive) each time.

Consider `Cc1ccc(C(=O)c2cc(O)c(O)c([N+](=O)[O-])c2)cc1` [TOLCAPONE], for which the IC50 (in general, the concentration that gives 50% inhibition) was 2.5 µM (active) in assay [3]; 4.54 µM (active) in [4]; 1.88 µM (active) in [5]; 4.64 µM (active) in [6]; > 20 µM (inactive) in assay [7]; 2.29 µM (active) in assay [8]. The IC50 was 6.14 µM (inactive) in [9] and 0.265 µM (active) in [10].

For `O=[N+]([O-])c1cc(F)c2cccnc2c1O`, the AC50 (in general, the concentration at which the activity in the assay is half-maximal) at Caspase-6 is 14.3 µM (active). Also, in [11], the IC50 is 12 µM (active).

`O=C(Nc1cccc(C(F)(F)F)c1)c1cccc(NS(=O)(=O)c2ccc(O)c(C(=O)O)c2)c1`: at Caspase-6, the AC50 is 40.3 µM (active).

Consider `COc1ccc(CCNC(=O)/C=C/c2ccc3ccccc3n2)cc1OC`, for which the figures for the CC50 in the assay on Vero [12] and with Vero [13] were 12 µM (active) and 16.4 µM (active), respectively. In the assay on Vero [14], the IC50 is > 25 µM (active).

`Cc1cc(C(F)F)n2ncc(C(=O)NCc3ccccc3C(F)(F)F)c2n1`: the AC50 on Cytochrome P450 1A2 is 0.708 µM (inconclusive); at Cytochrome P450 2C19 it was 6.31 µM (inconclusive). The IC50 in [15] is on record as 26.2 µM (not active).

For `O=C1c2ccccc2C(=O)C1C(=O)C(c1ccccc1)c1ccccc1` [DIPHENADIONE], the IC50 in assay [3] was 0.621 µM (active); in assay [4] it was 4.01 µM (active); in assay [5], 1.59 µM (active); in assay [6], 0.536 µM (active); in assay [7] it was 4.48 µM (active); in [8], 0.531 µM (active). Also, the IC50 is 1.33 µM (active) in assay [9] and 0.567 µM (active) in [10].

Source of the values: ChEMBL document CHEMBL1201862, “PubChem BioAssay data set” (2004).
